Like-named read-outs stand apart in the source and are kept apart here.
How the values were obtained:
HT29 [1] = assay: tumor cell growth (CTG), HT29; details: Homo sapiens
HCT116 [2] = assay: Thymidine (Thy) 96 well, HCT116; details: Homo sapiens, read-out: IC50 (uM), HCT116 (Colon Cancer)
U87 = assay: tumor cell growth, U87; details: Homo sapiens, U-87 MG, read-out: IC50 (uM), U87 (CNS)
PC3 [3] = assay: [3H]-Thymidine incorporation in 96-well plates (Thy), PC3; details: Homo sapiens, read-out: IC50 (uM), PC3 (Prostrate Cancer)
HEP3B [4] = assay: [3H]-Thymidine incorporation in 96-well plates (Thy), HEP3B; details: Homo sapiens, Hep3B, read-out: IC50 (uM), HEP3B (Liver Cancer)
HEP3B [5] = assay: tumor cell growth (CTG), HEP3B; details: Homo sapiens, Hep3B
GL261 = assay: tumor cell growth, GL261; details: Mus musculus, GL261, read-out: IC50 (uM), GL261 (CNS)
PC3 [6] = assay: tumor cell growth (CTG), PC3; details: Homo sapiens
PANC-1 = assay: tumor cell growth, PANC-1; details: Homo sapiens, PANC-1, read-out: IC50 (uM), PANC-1 (Pancreatic C)
U118 = assay: tumor cell growth, U118; details: read-out: IC50 (uM), U118 (CNS)
NCIH460 = assay: Thymidine (Thy) 96 well, NCIH460; details: Homo sapiens, read-out: IC50 (uM), NCIH460 (NSCLC)
HCT116 [7] = assay: tumor cell growth (CTG), HCT116; details: Homo sapiens
A549 = assay: tumor cell growth, A549; details: Homo sapiens, A549, read-out: IC50 (uM), A549 (NSCLC)
U251 = assay: tumor cell growth, U251; details: Homo sapiens, U-251, read-out: IC50 (uM), U251 (CNS)
A172 = assay: tumor cell growth, A172; details: Homo sapiens, A 172, read-out: IC50 (uM), A172 (CNS)
H460 = assay: tumor cell growth (CTG), H460 / NCIH460; details: Homo sapiens
HEPG2 = assay: tumor cell growth, HEPG2; details: Homo sapiens, HepG2, read-out: IC50 (uM), HEPG2 (Liver C)
HT29 [8] = assay: Thymidine (Thy) 96 well, HT29; details: Homo sapiens, read-out: IC50 (uM), HT29 (Colon Cancer)
Du-145 = assay: tumor cell growth, Du-145; details: Homo sapiens, DU-145, read-out: IC50 (uM), Du-145 (Prostate C)
MCF7 = assay: tumor cell growth, MCF7; details: Homo sapiens, MCF7, read-out: IC50 (uM), MCF7 (Breast C)
LN-18 = assay: tumor cell growth, LN-18; details: Homo sapiens, LN-18, read-out: IC50 (uM), LN-18 (CNS)
LN229 = assay: [3H]-Thymidine incorporation in 96-well plates (Thy), LN229; details: Homo sapiens, read-out: IC50 (uM), LN229 (CNS Cancer)
LN-229 = assay: tumor cell growth (CTG), LN-229 / LN229; details: Homo sapiens
MDAMB231 = assay: tumor cell growth, MDAMB231; details: Homo sapiens, MDA-MB-231, read-out: IC50 (uM), MDAMB231 (Breast C)

COc1cccc2c1C(=O)c1c(O)c3c(c(O)c1C2=O)C[C@@](O)(C(=O)CO)C[C@@H]3O[C@H]1C[C@H](N)[C@H](O)[C@H](C)O1 [Doxorubicin, reference compound]
IC50 (HT29 [1]; HT-29, 48 h, read-out: IC50 (uM), HT29 (Colon Cancer)): 0.52 µM | IC50 (HT29 [1]; HT-29, 72 h, read-out: IC50 (uM), HT29 (Colon Cancer)): 0.26 µM | IC50 (HT29 [1]; HT-29, read-out: IC50 (uM), HT29 (Colon C)): 0.26 µM | IC50 (HCT116 [2]; HCT-116, 24 h): 0.12 µM | IC50 (HCT116 [2]; HCT-116, 48 h): 0.14 µM | IC50 (U87): 0.21 µM | IC50 (PC3 [3]; PC-3, 24 h): 0.04 µM | IC50 (PC3 [3]; PC-3, 48 h): 0.28 µM | IC50 (HEP3B [4]; 24 h): 0.04 µM | IC50 (HEP3B [4]; 48 h): 0.02 µM | IC50 (HEP3B [5]; 48 h, read-out: IC50 (uM), HEP3B (Liver Cancer), 96 well CTG 2 days treatment): 0.52 µM | IC50 (HEP3B [5]; 72 h, read-out: IC50 (uM), HEP3B (Liver Cancer), 384well CTG 3 days treatment −1): 0.43 µM | IC50 (HEP3B [5]; 72 h, read-out: IC50 (uM), HEP3B (Liver Cancer), 384well CTG 3 days treatment −2): 0.35 µM | IC50 (HEP3B [5]; read-out: IC50 (uM), HEP3B (Liver C), Table 6): 0.43 µM | IC50 (GL261): 0.17 µM | IC50 (PC3 [6]; PC-3, 24 h, read-out: IC50 (uM), PC3 (Prostrate Cancer)): 3.02 µM | IC50 (PC3 [6]; PC-3, 48 h, read-out: IC50 (uM), PC3 (Prostrate Cancer)): 0.93 µM | IC50 (PC3 [6]; PC-3, 72 h, read-out: IC50 (uM), PC3 (Prostrate Cancer)): 0.91 µM | IC50 (PC3 [6]; PC-3, read-out: IC50 (uM), PC3 (Prostate C)): 0.91 µM | IC50 (PANC-1): 2.97 µM | IC50 (U118): 0.81 µM | IC50 (NCIH460; NCI-H460, 24 h): 0.09 µM | IC50 (NCIH460; NCI-H460, 48 h): 0.03 µM | IC50 (HCT116 [7]; HCT-116, 24 h, read-out: IC50 (uM), HCT116 (Colon Cancer), 96 well CTG 1 day treatment): 0.21 µM | IC50 (HCT116 [7]; HCT-116, 48 h, read-out: IC50 (uM), HCT116 (Colon Cancer), 96 well CTG 2 days treatment): 0.23 µM | IC50 (HCT116 [7]; HCT-116, 72 h, read-out: IC50 (uM), HCT116 (Colon Cancer), 384well CTG 3 days treatment −1): 0.06 µM | IC50 (HCT116 [7]; HCT-116, 72 h, read-out: IC50 (uM), HCT116 (Colon Cancer), 384well CTG 3 days treatment −2): 0.21 µM | IC50 (HCT116 [7]; HCT-116, read-out: IC50 (uM), HCT116 (Colon C), Table 6): 0.06 µM | IC50 (A549): 0.11 µM | IC50 (U251): 0.17 µM | IC50 (A172): 0.46 µM | IC50 (H460; NCI-H460, 24 h, read-out: IC50 (uM), NCIH460 (NSCLC), 96 well CTG 1 day treatment): 0.31 µM | IC50 (H460; NCI-H460, 48 h, read-out: IC50 (uM), NCIH460 (NSCLC), 96 well CTG 2 days treatment): 0.12 µM | IC50 (H460; NCI-H460, 72 h, read-out: IC50 (uM), NCIH460 (NSCLC), 384well CTG 3 days treatment −1): 0.02 µM | IC50 (H460; NCI-H460, 72 h, read-out: IC50 (uM), NCIH460 (NSCLC), 384well CTG 3 days treatment −2): 0.11 µM | IC50 (H460; NCI-H460, read-out: IC50 (uM), H460 (NSCLC), Table 6): 0.02 µM | IC50 (HEPG2): 0.28 µM | IC50 (HT29 [8]; HT-29, 24 h): 0.11 µM | IC50 (HT29 [8]; HT-29, 48 h): 0.12 µM | IC50 (Du-145): 0.38 µM | IC50 (MCF7): 0.3 µM | IC50 (LN-18): 0.53 µM | IC50 (LN229; LN-229, 24 h): 0.1 µM | IC50 (LN229; LN-229, 48 h): 0.07 µM | IC50 (LN-229; LN-229, 48 h, read-out: IC50 (uM), LN229 (CNS Cancer)): 1.7 µM | IC50 (LN-229; LN-229, 72 h, read-out: IC50 (uM), LN229 (CNS Cancer)): 0.61 µM | IC50 (LN-229; LN-229, read-out: IC50 (uM), LN-229 (CNS)): 0.61 µM | IC50 (MDAMB231): 0.68 µM

— patent US11389415B2, “Methods of regulating cannabinoid receptor activity-related disorders and diseases” (The United States of America as represented by the …, priority 2012, dated 2022)
